According to US4587342A, “2,4-diamino-(substituted-benzopyran(quinolyl,isoquinoly)methyl)pyrimidine s useful as antibacterials” (priority 1980, dated 1986):
Converted amounts (≈) assume the structure as drawn. Blank lines part the entries; values can stand above or below the molecule they belong to.

Experiments:
Staph. aureus = test: MIC vs Staph. aureus (Table 2); type: cell-based; details: Staphylococcus aureus, strain not given
Description: (§1) The compounds of the present invention were subjected to standard tests in order to determine the minimum inhibitory concentration in μg/ml needed to inhibit a range of bacterial microorganisms in-vitro.

St. faecalis CN478 = test: MIC against St. faecalis CN478 in vitro; type: cell-based; details: Enterococcus faecalis, read-out: Minimum Inhibitory Concentration (MIC)
Description: as §1

St. agalactiae CN1143 = test: MIC against St. agalactiae CN1143 in vitro; type: cell-based; details: Streptococcus agalactiae, read-out: Minimum Inhibitory Concentration (MIC)
Description: as §1

Staph. aureus CN491 = test: MIC against Staph. aureus CN491 in vitro; type: cell-based; details: Staphylococcus aureus, read-out: Minimum Inhibitory Concentration (MIC)
Description: as §1

[1] = system: Vibrio cholerae ATCC14035; test: MIC against Vibrio cholerae ATCC14035 in vitro; type: cell-based; details: ATCC14035, read-out: Minimum Inhibitory Concentration (MIC)
Description: as §1

Esch. coli CN314 = test: MIC against Esch. coli CN314 in vitro; type: cell-based; details: Escherichia coli, read-out: Minimum Inhibitory Concentration (MIC)
Description: as §1

Pr. mirabilis S2409 = test: MIC against Pr. mirabilis S2409 in vitro; type: cell-based; details: Proteus mirabilis, read-out: Minimum Inhibitory Concentration (MIC)
Description: as §1

Meningococci = test: MIC against Meningococci in vitro; type: cell-based; details: Meningococci (average 5 strains); read-out: Minimum Inhibitory Concentration (MIC)
Description: as §1

Gonococci = test: MIC against Gonococci in vitro; type: cell-based; details: Gonococci (average 17 strains); read-out: Minimum Inhibitory Concentration (MIC)
Description: as §1

B. fragilis = test: MIC against B. fragilis in vitro; type: cell-based; details: Bacteroides fragilis; B. fragilis (average 3-10 strains); read-out: Minimum Inhibitory Concentration (MIC)
Description: as §1

Acute toxicity in mouse = details: in vivo, ip; i.p. mouse
Salmonella dublin = test: Experimental salmonellosis in calves; type: in vivo; details: 1 mg/kg daily plus SDZ 20 mg/kg, 5 days from two days after infection; deaths/calves
aerobic bacteria = details: general statement on trimethoprim; cited from earlier work
anaerobic bacteria = details: general statement on trimethoprim; cited from earlier work

Compound: COc1cc(Cc2cnc(N)nc2N)c2c(c1OC)OCCC2 [Compound 2, 2,4-Diamino-5-(3,4-dihydro-7,8-dimethoxy-2 --H--1-benzopyran-5-yl) pyrimidine]
- MIC (Staph. aureus): 0.5 µg/mL (≈ 1.58 µM)

Compound: COc1cc(Cc2cnc(N)nc2N)c2c(c1OC)OC(C)C=C2 (centres unmarked) [Compound 4, 2,4-Diamino-5-(7,8-dimethoxy-2-methyl-2 --H--1-benzopyran-5-ylmethyl) pyrimidine lactate]
- MIC (St. faecalis CN478): 0.01 µg/mL
- MIC (St. agalactiae CN1143): 0.05 µg/mL
- MIC (Staph. aureus CN491): 0.05 µg/mL
- MIC [1]: 0.05 µg/mL
- MIC (Esch. coli CN314): 0.1 µg/mL
- MIC (Pr. mirabilis S2409): 5 µg/mL
- MIC (Meningococci): 2.8 µg/mL
- MIC (Gonococci): 4.6 µg/mL
- MIC (B. fragilis): 0.48 µg/mL

Compound: COc1cc(Cc2cnc(N)nc2N)c2c(c1OC)OC(C)(C)C=C2 [Compound 6, 2,4-Diamino-5-(7,8-dimethoxy-2,2-dimethyl-2 --H--1-benzopyran-5-ylmethyl) pyrimidine lactate]
- MIC (Staph. aureus): 0.05 µg/mL

Compound: COc1cc(Cc2cnc(N)nc2N)c2cccnc2c1N.Cl.Cl [Compound 8, 2,4-Diamino-5-(8-amino-7-methoxy-5-quinolylmethyl)-pyrimidine dihydrochloride]
- MIC (St. faecalis CN478): 0.1 µg/mL
- MIC (St. agalactiae CN1143): 0.1 µg/mL
- MIC (Staph. aureus CN491): 0.1 µg/mL
- MIC [1]: 0.05 µg/mL
- MIC (Esch. coli CN314): 0.1 µg/mL
- MIC (Pr. mirabilis S2409): 1 µg/mL
- MIC (Meningococci): 3.7 µg/mL
- MIC (Gonococci): 11.1 µg/mL
- MIC (B. fragilis): 5.2 µg/mL
- LD50 (Acute toxicity in mouse): 500 mg/kg

Compound: Cc1cc(Cc2cnc(N)nc2N)c2cccnc2c1N(C)C.Cl.Cl [Compound 9, 2,4-Diamino-5-(8-dimethylamino-7-methyl-5-quinolylmethyl)pyrimidine dihydrochloride]
- MIC (St. faecalis CN478): 0.05 µg/mL
- MIC (St. agalactiae CN1143): 0.5 µg/mL
- MIC (Staph. aureus CN491): 0.5 µg/mL
- MIC [1]: 0.5 µg/mL
- MIC (Esch. coli CN314): 0.1 µg/mL
- MIC (Pr. mirabilis S2409): 5 µg/mL
- MIC (Meningococci): > 25 µg/mL
- MIC (Gonococci): > 25 µg/mL
- MIC (B. fragilis): 7.8 µg/mL

Compound: COc1cc(Cc2cnc(N)nc2N)c2c(c1OC)OC=CC2 [Compound 10, 2,4-Diamino-5-(7,8-dimethoxy-4 --H--1-benzopyran-5-ylmethyl)pyrimidine acetate]
- MIC (Staph. aureus): 0.05 µg/mL

Compound: Cc1cc(Cc2cnc(N)nc2N)c2cccnc2c1.Cl.Cl [Compound 17, 2,4-Diamino-5-(7-methyl-5-quinolylmethyl)-pyrimidine dihydrochloride]
- MIC (Staph. aureus): 0.5 µg/mL

Compound: CC(=O)O.Cc1cc(Cc2cnc(N)nc2N)c2cccnc2c1-n1cccc1 [Compound 18, 2,4-Diamino-5-(8-(1-pyrrolyl)-7-methyl-5-quinolylmethyl)pyrimidine acetate]
- MIC (Staph. aureus): 0.5 µg/mL

Compound: COc1cc(Cc2cnc(N)nc2N)c2c(c1OC)OC(C)=CC2 [Compound 19, 2,4-Diamino-5-(7,8-dimethoxy-2-methyl-4H--1-benzopyran-5-ylmethyl)pyrimidine]
- MIC (Staph. aureus): 0.05 µg/mL (≈ 0.152 µM)

Compound: COc1cc(Cc2cnc(N)nc2N)c2c(c1OC)OC(C)CC2 (centres unmarked) [Compound 22, 2,4-Diamino-5-(7,8-dimethoxy-3,4-dihydro-2-methyl-2 --H---1-benzopyran-5-ylmethyl)pyrimidine]
- MIC (Staph. aureus): 0.1 µg/mL (≈ 0.303 µM)

Compound: COc1cc(Cc2cnc(N)nc2N)c2ccncc2c1N.Cl.Cl [Compound 25, 2,4-Diamino-5-(8-amino-7-methoxy-5-isoquinolylmethyl)pyrimidine dihydrochloride]
- MIC (St. faecalis CN478): 0.05 µg/mL
- MIC (St. agalactiae CN1143): 0.05 µg/mL
- MIC (Staph. aureus CN491): 0.05 µg/mL
- MIC [1]: 0.05 µg/mL
- MIC (Esch. coli CN314): 0.05 µg/mL
- MIC (Pr. mirabilis S2409): 5 µg/mL
- MIC (Meningococci): 3.1 µg/mL
- MIC (Gonococci): 8.1 µg/mL
- MIC (B. fragilis): 2.6 µg/mL

Compound: Cl.Cl.Nc1ncc(Cc2cc(Cl)c(N)c3ncccc23)c(N)n1 [Compound 28, 2,4-Diamino-5-(8-amino-7-chloro-5-quinolylmethyl)pyrimidine dihydrochloride]
- MIC (Staph. aureus): 0.1 µg/mL

Compound: CSc1cc(Cc2cnc(N)nc2N)c2cccnc2c1N.Cl.Cl [Compound 30, 2,4-Diamino-5-(8-amino-7-methylthio-5-quinolylmethyl)pyrimidine dihydrochloride]
- MIC (Staph. aureus): 0.1 µg/mL

Compound: COc1cc(Cc2cnc(N)nc2N)c2cccnc2c1SC [Compound 31, 2,4-Diamino-5-(7-methoxy-8-methylthio-5-quinolylmethyl)pyrimidine]
- MIC (St. faecalis CN478): 0.05 µg/mL (≈ 0.153 µM)
- MIC (St. agalactiae CN1143): 0.5 µg/mL (≈ 1.53 µM)
- MIC (Staph. aureus CN491): 0.05 µg/mL (≈ 0.153 µM)
- MIC [1]: 0.05 µg/mL (≈ 0.153 µM)
- MIC (Esch. coli CN314): 0.1 µg/mL (≈ 0.305 µM)
- MIC (Pr. mirabilis S2409): 5 µg/mL (≈ 15.3 µM)
- MIC (Meningococci): 14.4 µg/mL (≈ 44 µM)
- MIC (Gonococci): 34.4 µg/mL (≈ 105 µM)
- MIC (B. fragilis): 3.1 µg/mL (≈ 9.47 µM)

Compound: Cc1cc(Cc2cnc(N)nc2N)c2ncccc2c1N [Compound 34, 2,4-Diamino-5-(5-amino-6-methyl-8-quinolylmethyl)pyrimidine]
- MIC (Staph. aureus): 5 µg/mL (≈ 17.8 µM)

Compound: COc1cc(Cc2cnc(N)nc2N)cc(OC)c1OC [TMP, 2,4-diamino-5-(3,4,5-trimethoxybenzyl)pyrimidine, reference compound]
- MIC (St. faecalis CN478): 0.1 µg/mL (≈ 0.344 µM)
- MIC (St. agalactiae CN1143): 0.5 µg/mL (≈ 1.72 µM)
- MIC (Staph. aureus CN491): 0.5 µg/mL (≈ 1.72 µM)
- MIC [1]: 0.5 µg/mL (≈ 1.72 µM)
- MIC (Esch. coli CN314): 0.05 µg/mL (≈ 0.172 µM)
- MIC (Pr. mirabilis S2409): 5 µg/mL (≈ 17.2 µM)
- MIC (Meningococci): 18 µg/mL (≈ 62 µM)
- MIC (Gonococci): 37.1 µg/mL (≈ 128 µM)
- MIC (B. fragilis): 4 µg/mL (≈ 13.8 µM)
- MIC (Staph. aureus): 0.5 µg/mL (≈ 1.72 µM)
- Mortality (Salmonella dublin): 2/7
- level of activity against aerobic bacteria (aerobic bacteria): excellent level of activity against most aerobic bacteria
- level of activity against anaerobic bacteria (anaerobic bacteria): activity against anaerobic bacteria is less impressive

Results, then the molecule that gave them:

- MIC (Staph. aureus): 0.5 µg/mL (≈ 1.78 µM)
Compound: COc1ccc(Cc2cnc(N)nc2N)c2cccnc12 [Compound 3, 2,4-Diamino-5-(8-methoxy-5-quinolylmethyl)-pyrimidine]

- MIC (Staph. aureus): 0.5 µg/mL
Compound: Cc1cc(Cc2cnc(N)nc2N)c2cccnc2c1N.Cl [Compound 5, 2,4-Diamino-5-(8-amino-7-methyl-5-quinolylmethyl)-pyrimidine hydrochloride]

- MIC (Staph. aureus): 0.5 µg/mL (≈ 1.52 µM)
Compound: COc1cc(Cc2cnc(N)nc2N)c2ccc(=O)oc2c1OC [Compound 7, 2,4-Diamino-5-(7,8-dimethoxy-2-oxo-2 --H--1-benzopyran-5-ylmethyl)pyrim]

- MIC (Staph. aureus): 1 µg/mL (≈ 3.25 µM)
Compound: C=CCc1cc(Cc2cnc(N)nc2N)c2cccnc2c1O [Compound 11, 5-(7-Allyl-8-hydroxy-5-quinolylmethyl)-2,4-diaminopyrimidine]

- MIC (Staph. aureus): 0.05 µg/mL (≈ 0.156 µM)
Compound: C=CCc1cc(Cc2cnc(N)nc2N)c2cccnc2c1OC [Compound 12, 5-(7-Allyl-8-methoxy-5-quinolylmethyl)-2,4-diaminopyrimidine]

- MIC (Staph. aureus): 0.1 µg/mL (≈ 0.311 µM)
Compound: C=CCc1cc(Cc2cnc(N)nc2N)c2ccc(C)nc2c1O [Compound 13, 5-(7-Allyl-8-hydroxy-2-methyl-5-quinolylmethyl)-2,4-diaminopyrimidine]

- MIC (Staph. aureus): 0.05 µg/mL (≈ 0.156 µM)
Compound: CC=Cc1cc(Cc2cnc(N)nc2N)c2cccnc2c1OC [Compound 14, 2,4-Diamino-5-(8-methoxy-7-(1-propenyl)-5-quinolylmethyl)pyrimidine]

- MIC (Staph. aureus): 0.5 µg/mL
Compound: COc1cc(Cc2cnc(N)nc2N)c2cccnc2c1N(C)C.Cl.Cl [Compound 15, 2,4-Diamino-5-(8-dimethylamino-7-methoxy-5-quinolylmethyl)pyrimidine dihydrochloride]

- MIC (Staph. aureus): 0.05 µg/mL (≈ 0.149 µM)
Compound: C=CCc1cc(Cc2cnc(N)nc2N)c2ccc(C)nc2c1OC [Compound 16, 5-(7-Allyl-8-methoxy-2-methyl-5-quinolylmethyl)-2,4-diaminopyrimidine]

- MIC (Staph. aureus): 0.05 µg/mL (≈ 0.155 µM)
Compound: CCCc1cc(Cc2cnc(N)nc2N)c2cccnc2c1OC [Compound 20, 2,4-Diamino-5-(8-methoxy-7-propyl-5-quinolylmethyl)-pyrimidine]

- MIC (Staph. aureus): 5 µg/mL (≈ 16.8 µM)
Compound: COc1cc(Cc2cnc(N)nc2N)c2cccnc2c1O [Compound 23, 2,4-Diamino-5-(8-hydroxy-7-methoxy-5-quinolylmethyl)pyrimidine]

- MIC (Staph. aureus): 0.1 µg/mL (≈ 0.321 µM)
Compound: COc1cc(Cc2cnc(N)nc2N)c2cccnc2c1OC [Compound 24, 2,4-Diamino-5-(7,8-dimethoxy-5-quinolylmethyl)pyrimidine]

- MIC (Staph. aureus): 0.05 µg/mL (≈ 0.161 µM)
Compound: CCOc1cc(Cc2cnc(N)nc2N)c2cccnc2c1N [Compound 26, 2,4-Diamino-5-(8-amino-7-ethoxy-5-quinolylmethyl)pyrimidine]

- MIC (Staph. aureus): 0.1 µg/mL (≈ 0.274 µM)
Compound: C=CCc1cc(Cc2cnc(N)nc2N)c2cccnc2c1OCCOC [Compound 27, 2,4-Diamino-5-(7-allyl-8-(2-methoxyethoxy)-5-quinolylmethyl)pyrimidine]

- MIC (Staph. aureus): 0.5 µg/mL (≈ 1.78 µM)
Compound: COc1cc(Cc2cnc(N)nc2N)c2cccnc2c1 [Compound 29, 2,4-Diamino-5-(7-methoxy-5-quinolylmethyl)pyridimine]

- MIC (Staph. aureus): 0.5 µg/mL (≈ 1.69 µM)
Compound: COc1cc(Cc2cnc(N)nc2N)c2ncccc2c1N [Compound 35, 2,4-Diamino-5-(5-amino-6-methoxy-8-quinolylmethyl)pyrimidine]

- MIC (Staph. aureus): 0.05 µg/mL (≈ 0.154 µM)
Compound: C=CCc1cc(Cc2cnc(N)nc2N)c2c(c1OC)NCCC2 [Compound 36, 5-(7-allyl-8-methoxy-5-(1,2,3,4-tetrahydro-quinolylmethyl))-2,4-diaminopyrimidine]
